# Legend:
# [1] = molecular target: T1, Avi-KRAS G12D (1-169) GppNHp/RAF1 RBD-3xFLAG (52-151) (Homo sapiens, UniProt P01116, G12D); test: Raf1-KRAS G12D-GppNHP disruption HTRF assay (Biological Example 1); format: binding
# T1 construct: Avi-KRAS G12D (1-169)
# Method in brief: (§1)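 Protein mix, 1 h RT, 700 rpm; reagent mix, 1 h RT, 700 rpm; HTRF read. Buffer Tris pH 7.5/NaCl/MgCl2/BSA/Tween, 10% DMSO. Output % activity, DMSO = 100%.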
# [2] = molecular target: T2, Avi-KRAS G12V (1-169) GppNHp/RAF1 RBD-3xFLAG (52-151) (Homo sapiens, UniProt P01116, G12V); test: Raf1-KRAS G12V-GppNHP disruption HTRF assay (Biological Example 1); format: binding
# T2 construct: Avi-KRAS G12V (1-169)
# Method in brief: as §1
# [3] = molecular target: T3, Avi-KRAS G12R (1-169) GppNHp/RAF1 RBD-3xFLAG (52-151) (Homo sapiens, UniProt P01116, G12R); test: Raf1-KRAS G12R-GppNHP disruption HTRF assay (Biological Example 1); format: binding
# T3 construct: Avi-KRAS G12R (1-169)
# Method in brief: as §1
# GP2d cells (KRAS G12D) = test: Cell-based pERK HTRF assay in GP2d cell (Biological Example 2); details: GP2d (KRAS G12D) cells, pERK HTRF
# Method in brief: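 Phospho-ERK is measured by HTRF following a 60 min compound exposure at 0.25% DMSO, with a 9-point half-log curve topping at 1 μM or 100 nM.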
# SW620 cells (KRAS G12V) = test: Cell-based pERK HTRF assay in SW620 cell (Biological Example 4); details: pERK HTRF
# Method in brief: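 SW620 seeded in RPMI/10% FBS, next day dosed 4 h (top 1 μM, half-log, 9 pts, 0.25% DMSO). Lysed, pERK by d2/Eu cryptate HTRF, 4–24 h RT, 615 nm read.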
# [4] = molecular target: T4, Avi-KRAS WT (1-169) GppNHp/RAF1 RBD-3xFLAG (52-151) (Homo sapiens, UniProt P01116); test: Raf1-KRAS WT-GppNHP disruption HTRF assay (Biological Example 1); format: binding
# T4 construct: Avi-KRAS WT (1-169)
# Method in brief: as §1
# [5] = KRAS G12D, GppNHp-loaded, class symbols
# [6] = KRAS G12V, GppNHp-loaded, class symbols
# [7] = KRAS G12R, GppNHp-loaded, class symbols
# [8] = Homo sapiens, SW-620, SW620 (KRAS G12V) cells, class symbols
# [9] = KRAS WT, GppNHp-loaded, class symbols
# [10] = Homo sapiens, SW-620, SW620 (KRAS G12V) cells
# [11] = KRAS G12D, GppNHp-loaded, Table 11
# [12] = KRAS G12V, GppNHp-loaded, Table 11
# [13] = KRAS G12R, GppNHp-loaded, Table 11
# [14] = KRAS WT, GppNHp-loaded, Table 11
# T1 sequence (P01116 1-169 isoform P01116-2 G12D): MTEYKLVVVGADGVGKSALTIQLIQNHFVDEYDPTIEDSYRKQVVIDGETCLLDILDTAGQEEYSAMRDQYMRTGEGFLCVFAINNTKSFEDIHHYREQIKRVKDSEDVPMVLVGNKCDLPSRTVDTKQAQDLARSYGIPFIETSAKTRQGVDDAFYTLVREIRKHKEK
# T3 sequence (P01116 1-169 isoform P01116-2 G12R): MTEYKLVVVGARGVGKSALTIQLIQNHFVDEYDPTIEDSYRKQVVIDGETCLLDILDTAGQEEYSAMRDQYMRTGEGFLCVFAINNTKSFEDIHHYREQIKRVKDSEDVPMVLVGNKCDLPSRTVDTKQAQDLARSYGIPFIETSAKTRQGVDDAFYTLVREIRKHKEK
# T2 sequence (P01116 1-169 isoform P01116-2 G12V): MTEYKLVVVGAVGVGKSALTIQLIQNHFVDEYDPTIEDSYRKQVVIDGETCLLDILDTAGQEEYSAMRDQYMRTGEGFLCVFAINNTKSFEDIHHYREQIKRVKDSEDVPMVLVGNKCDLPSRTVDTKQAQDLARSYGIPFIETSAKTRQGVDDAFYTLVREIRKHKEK
# T4 sequence (P01116 1-169 isoform P01116-2): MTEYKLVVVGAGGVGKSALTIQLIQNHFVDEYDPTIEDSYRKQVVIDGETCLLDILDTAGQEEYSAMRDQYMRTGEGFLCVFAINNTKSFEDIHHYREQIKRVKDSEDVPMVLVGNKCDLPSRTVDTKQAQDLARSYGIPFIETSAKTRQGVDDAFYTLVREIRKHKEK
smiles,measurement,setting,value
"CCN(c1nc(OC[C@@]23CCCN2C[C@H](F)C3)nc2c(F)c(-c3ccc(F)c4sc(N)c(C#N)c34)c(C(F)(F)F)cc12)[C@H]1CCN(C(=O)[C@H](C)CF)C1 (atropisomer, axis not shown) [Compound 790]",IC50,[1]; [5],< 100 nM
same,IC50,[2]; [6],100 to 1000 nM
same,IC50,[3]; [7],< 100 nM
same,IC50,"GP2d cells (KRAS G12D); GP2d, class symbols",< 100 nM
same,IC50,SW620 cells (KRAS G12V); [8],< 100 nM
same,IC50,[4]; [9],< 100 nM
N#Cc1c(N)sc2c(F)ccc(-c3c(C(F)(F)F)cc4c(N5C6COCC5CC(O)C6)nc(OC[C@@]56CCCN5C[C@H](F)C6)nc4c3F)c12 (stereo partly drawn) [Compound 374],IC50,[1]; KRAS G12D-GppNHp/RAF1 RBD HTRF,100 to 1000 nM
same,IC50,[2]; KRAS G12V-GppNHp/RAF1 RBD HTRF,1000 to 10000 nM
same,IC50,[3]; KRAS G12R-GppNHp/RAF1 RBD HTRF,1000 to 10000 nM
same,IC50,GP2d cells (KRAS G12D); GP2d,< 100 nM
same,IC50,SW620 cells (KRAS G12V); [10],< 100 nM
same,IC50,[4]; KRAS WT-GppNHp/RAF1 RBD HTRF,100 to 1000 nM
C[C@@H]1[C@H](N(C)c2nc(OC[C@@]34CCCN3C[C@H](F)C4)nc3c(F)c(-c4ccc(F)c5sc(N)c(C#N)c45)c(Cl)cc23)CCN1C(=O)C(C)(C)F [Compound 421],IC50,[1]; KRAS G12D-GppNHp/RAF1 RBD HTRF,1000 to 10000 nM
same,IC50,[2]; KRAS G12V-GppNHp/RAF1 RBD HTRF,1000 to 10000 nM
same,IC50,[3]; KRAS G12R-GppNHp/RAF1 RBD HTRF,1000 to 10000 nM
same,IC50,GP2d cells (KRAS G12D); GP2d,100 to 1000 nM
same,IC50,SW620 cells (KRAS G12V); [10],100 to 1000 nM
same,IC50,[4]; KRAS WT-GppNHp/RAF1 RBD HTRF,1000 to 10000 nM
N#Cc1c(N)sc2c(F)ccc(-c3c(C(F)(F)F)cc4c(N5CCS(=O)(=O)CC5)nc(OC[C@@]56CCCN5C[C@H](F)C6)nc4c3F)c12 [Compound 91],IC50,[1]; [11],100 to 1000 nM
same,IC50,[2]; [12],100 to 1000 nM
same,IC50,[3]; [13],100 to 1000 nM
same,IC50,GP2d cells (KRAS G12D); GP2d,< 100 nM
same,IC50,SW620 cells (KRAS G12V); [10],< 100 nM
same,IC50,[4]; [14],100 to 1000 nM
CCC(=O)N1CC(N(C)c2nc(OCC34CCCN3CC(F)C4)nc3c(F)c(-c4ccc(F)c5sc(N)c(C#N)c45)c(C(F)(F)F)cc23)CC1C (stereo not drawn) [Compound 444],IC50,[1]; KRAS G12D-GppNHp/RAF1 RBD HTRF,100 to 1000 nM
same,IC50,[2]; KRAS G12V-GppNHp/RAF1 RBD HTRF,1000 to 10000 nM
same,IC50,[3]; KRAS G12R-GppNHp/RAF1 RBD HTRF,1000 to 10000 nM
same,IC50,GP2d cells (KRAS G12D),< 100 nM
same,IC50,SW620 cells (KRAS G12V); SW620 (KRAS G12V) cells,< 100 nM
same,IC50,[4]; KRAS WT-GppNHp/RAF1 RBD HTRF,100 to 1000 nM
N#Cc1c(N)sc2c(F)ccc(-c3c(C(F)(F)F)cc4c(N5CCCC6(CC(O)C6)C5)nc(OC[C@@]56CCCN5C[C@H](F)C6)nc4c3F)c12 (stereo partly drawn) [Compound 231],IC50,[1]; [11],1000 to 10000 nM
same,IC50,[2]; [12],> 10000 nM
same,IC50,[3]; [13],1000 to 10000 nM
same,IC50,GP2d cells (KRAS G12D),100 to 1000 nM
same,IC50,SW620 cells (KRAS G12V); SW620 (KRAS G12V) cells,100 to 1000 nM
same,IC50,[4]; [14],1000 to 10000 nM
"CCN(c1nc(OC[C@@]23CCCN2C[C@H](F)C3)nc2c(F)c(-c3ccc(F)c4sc(N)c(C#N)c34)c(C(F)(F)F)cc12)[C@H]1CCN(C(=O)O[C@H]2CCOC2)C1 (atropisomer, axis not shown) [Compound 682]",IC50,[1]; [5],< 100 nM
same,IC50,[2]; [6],< 100 nM
same,IC50,[3]; [7],< 100 nM
same,IC50,"GP2d cells (KRAS G12D); GP2d, class symbols",< 100 nM
same,IC50,SW620 cells (KRAS G12V); [8],< 100 nM
same,IC50,[4]; [9],< 100 nM
CCN(c1nc(OC[C@@]23CCCN2C[C@H](F)C3)nc2c(F)c(-c3ccc(F)c4sc(N)c(C#N)c34)c(C(F)(F)F)cc12)[C@@H]1CCN(C(=O)C2CC2)[C@H]1C [Compound 415],IC50,[1]; KRAS G12D-GppNHp/RAF1 RBD HTRF,100 to 1000 nM
same,IC50,[2]; KRAS G12V-GppNHp/RAF1 RBD HTRF,1000 to 10000 nM
same,IC50,[3]; KRAS G12R-GppNHp/RAF1 RBD HTRF,100 to 1000 nM
same,IC50,GP2d cells (KRAS G12D); GP2d,< 100 nM
same,IC50,SW620 cells (KRAS G12V); [10],< 100 nM
same,IC50,[4]; KRAS WT-GppNHp/RAF1 RBD HTRF,100 to 1000 nM
CN1CCN(c2nc(OC[C@@]34CCCN3C[C@H](F)C4)nc3c(F)c(-c4ccc(F)c5sc(N)c(C#N)c45)c(C(F)(F)F)cc23)CCC1=O [Compound 271],IC50,[1]; [11],100 to 1000 nM
same,IC50,[2]; [12],100 to 1000 nM
same,IC50,[3]; [13],100 to 1000 nM
same,IC50,GP2d cells (KRAS G12D); GP2d,< 100 nM
same,IC50,SW620 cells (KRAS G12V); [10],< 100 nM
same,IC50,[4]; [14],100 to 1000 nM
"CCN(c1nc(OC[C@@]23CCCN2C[C@H](F)C3)nc2c(F)c(-c3ccc(F)c4sc(N)c(C#N)c34)c(C(F)(F)F)cc12)[C@H]1CCN(C(=O)c2ccno2)C1 (atropisomer, axis not shown) [Compound 552]",IC50,[1]; KRAS G12D-GppNHp/RAF1 RBD HTRF,< 100 nM
same,IC50,[2]; KRAS G12V-GppNHp/RAF1 RBD HTRF,< 100 nM
same,IC50,[3]; KRAS G12R-GppNHp/RAF1 RBD HTRF,< 100 nM
same,IC50,GP2d cells (KRAS G12D); GP2d,< 100 nM
same,IC50,SW620 cells (KRAS G12V); [10],< 100 nM
same,IC50,[4]; KRAS WT-GppNHp/RAF1 RBD HTRF,< 100 nM
"Cc1ccc(CN(C)c2nc(OC[C@@]34CCCN3C[C@H](F)C4)nc3c(F)c(-c4ccc(F)c5sc(N)c(C#N)c45)c(C(F)(F)F)cc23)c(N)n1 (atropisomer, axis not shown) [Compound 736]",IC50,[1]; [5],100 to 1000 nM
same,IC50,[2]; [6],100 to 1000 nM
same,IC50,[3]; [7],100 to 1000 nM
same,IC50,"GP2d cells (KRAS G12D); GP2d, class symbols",< 100 nM
same,IC50,SW620 cells (KRAS G12V); [8],100 to 1000 nM
same,IC50,[4]; [9],1000 to 10000 nM
